We go through nine compounds from patent publication US20120177742A1, “NANOPARTICLE AND SURFACE-MODIFIED PARTICULATE COATINGS, COATED BALLOONS, AND METHODS THEREFORE” (MICELL TECHNOLOGIES, INC., priority 2010, published 2012).

The nature of this data set: Rapamycin coating affinity testing: distribution between solid and liquid phases with surfactant in water (UV-Vis). The class given is physicochemical. As to conditions: for Cal. Rapa (Sediment) / Cal. Rapa (Supernate): calculated from UV-Vis absorbance; for Cal. Rapa (Sediment): in mg (unit assumed); for Cal. Rapa (Supernate): unit assumed; for total (% original) / total (% of original): percent recovery of initial rapamycin loading. From the text: One method of applying a positive surface charge to the coating is to add DMAB to the coating such that it is on its surface, at least. […] The coating is then sintered according to the RESS process. […] Care should be taken in certain embodiments to optimize the DMAB's application to the balloon and to handle the balloon thereafter to keep the DMAB from washing off. […] The initial mass of rapamycin is shown in the column labeled “Original rapa.” The supernatant (liquid phase) contains the material of interest as it is drug particles coated with the surfactant modifier. The values presented in the columns labeled “Cal. Rapa” are calculated from the UV-Vis absorbance spectrum of the sediment or supernatant respectively. The ratio of these two values determined the partition coefficient between the sediment and supernatant (reported in the column labeled “ratio”).
The initial mass of rapamycin is shown in the column labeled “Original rapa.” The supernatant (liquid phase) contains the material of interest as it is drug particles coated with the surfactant modifier. The values presented in the columns labeled “Cal. Rapa” are calculated from the UV-Vis absorbance spectrum of the sediment or supernatant respectively. The ratio of these two values determined the partition coefficient between the sediment and supernatant (reported in the column labeled “ratio”).

Where [1] appears, read: 1:1 Surfactant to Rapa (w/w), 10x dilution in water.
[2] abbreviates: 1:1 Surfactant to Rapa, 10x dilution.
Where [3] appears, read: 1:1 Surfactant to Rapa, 10x dilution, partition between supernatant and sediment.
Setting [4] is: 1:10 Surfactant to Rapa (w/w), 100x dilution in water.
Setting [5] is: 1:10 Surfactant to Rapa, 100x dilution.
[6] abbreviates: 10:1 Surfactant to Rapa (w/w), 6x dilution in water.
[7] abbreviates: 10:1 Surfactant to Rapa, 6x dilution.

Marks after values point to notes of the source that are not given here.

`CCCCCCCCCCCC[N+](C)(C)CCCCCCCCCCCC.[Br-]` [DMAB, didodecyldimethylammonium bromide]: the Sediment wt under setting [1] was 2.2 mg, the Sediment wt under setting [4] is 8.52 mg and the Sediment wt under setting [6] worked out at 3.73 mg. The “Cal. Rapa (Sediment)” value reads like this: under setting [2], 1.23; under setting [5], 7.23; under setting [7], 1.23. Further, the Cal. Rapa (Supernate) by setting is: under setting [2], 0.64 mg; under setting [5], 0.4 mg; under setting [7], 1.02 mg. Moreover, the ratio super/sed is 0.52 under setting [3], 0.06 under setting [5] and 0.83 under setting [7]. Further, under setting [2], the “total (% original)” value came to 98.4%. The “total (% of original)” value by setting is: under setting [5], 79.5%; under setting [7], 107.1%.

`CCCCCCCCCCCCCC[N+](C)(C)CCCCCCCCCCCCCC.[Br-]` [Dimethylditetradecylammonium bromide, Dimethylditetradecyl Ammonium bromide] returned a Sediment wt under setting [1] of 2.28 mg. Also, under setting [2], the “Cal. Rapa (Sediment)” value is given as 1.9, the Cal. Rapa (Supernate) is 0.59 mg and the “total (% original)” value amounted to 113.2%. Further, the ratio super/sed under setting [3] turned out to be 0.31. The Sediment wt under setting [6] is recorded as 1.9 mg. Further, under setting [7], the ratio super/sed turned out to be 1.42, the “Cal. Rapa (Sediment)” value is on record as 0.85, the Cal. Rapa (Supernate) was 1.21 mg and the “total (% of original)” value is recorded as 110.2%.

Consider `CCCCCCCCCCCC[N+](C)(C)C.[Br-]` [Dodecyltrimethylammonium Bromide, Dodecyltrimethyl Ammonium Bromide], for which the Sediment wt was determined as 1.99 mg under setting [1], 7.7 mg under setting [4] and 2.56 mg under setting [6]. Also, the “Cal. Rapa (Sediment)” value is, setting by setting: under setting [2], 1.65; under setting [5], 6.6; under setting [7], 1.2. In addition, the Cal. Rapa (Supernate) under setting [2] is 0.5 mg, the Cal. Rapa (Supernate) under setting [5] was 1.33 mg and the Cal. Rapa (Supernate) under setting [7] was 0.78 mg. Moreover, the ratio super/sed worked out at 0.30 under setting [3], 0.20 under setting [5] and 0.65 under setting [7]. Moreover, the “total (% original)” value under setting [2] was found to be 108.6%. Further, the “total (% of original)” value under setting [5] amounted to 81.9% and the “total (% of original)” value under setting [7] is 87.6%.

Regarding `CCCCCCCCCCCCCCCC[N+](C)(C)CC.[Br-]` [Ethylhexadecyldimethylammonium Bromide], the Sediment wt reads like this: under setting [1], 3.85 mg; under setting [4], 8.6 mg; under setting [6], 3.21 mg. Besides, the “Cal. Rapa (Sediment)” value reads like this: under setting [2], 1.37; under setting [5], 6.86; under setting [7], 0.04*. The Cal. Rapa (Supernate) was 0.33 mg under setting [2], 1.05 mg under setting [5] and 1.26 mg under setting [7]. Also, the ratio super/sed by setting is: under setting [3], 0.24; under setting [5], 0.15; under setting [7], 31.50. The “total (% original)” value under setting [2] was 89.5%. For the same compound, the “total (% of original)” value reads like this: under setting [5], 80.2%; under setting [7], 59.6%.

`CCCC[N+](CCCC)(CCCC)CCCC.[I-]` [Tetrabutylammonium iodide] gave a Sediment wt under setting [1] of 2.1 mg. Further, under setting [2], the “Cal. Rapa (Sediment)” value is 1.97, the Cal. Rapa (Supernate) is 0.6 mg and the “total (% original)” value amounted to 114.2%. Besides, the ratio super/sed under setting [3] is listed as 0.30. Moreover, under setting [6], the Sediment wt is on record as 2.05 mg. Under setting [7], the ratio super/sed was found to be 0.39, the “Cal. Rapa (Sediment)” value was 1.07, the Cal. Rapa (Supernate) is 0.42 mg and the “total (% of original)” value is listed as 80.1%.

`CCCCCCCCCCCC[N+](CCCCCCCCCCCC)(CCCCCCCCCCCC)CCCCCCCCCCCC.[Br-]` [Tetradodecylammoniumbromid, Tetradodecylammonium bromide] came in with a Sediment wt under setting [1] of 6.31 mg. In addition, under setting [2], the “Cal. Rapa (Sediment)” value is on record as 1.51, the Cal. Rapa (Supernate) is 0.25 mg and the “total (% original)” value came out at 88.0%. The ratio super/sed under setting [3] is listed as 0.17. The same compound registered a Sediment wt under setting [6] of 3.6 mg. Besides, under setting [7], the ratio super/sed was 0.31, the “Cal. Rapa (Sediment)” value is 1.24, the Cal. Rapa (Supernate) is 0.39 mg and the “total (% of original)” value came out at 73.1%.

Consider Poly Histidine, for which the Sediment wt runs as follows: under setting [1], 7.21 mg; under setting [4], 7.9 mg; under setting [6], 2.85 mg. Also, the “Cal. Rapa (Sediment)” value under setting [2] is listed as 1.61, the “Cal. Rapa (Sediment)” value under setting [5] is recorded as 7.06 and the “Cal. Rapa (Sediment)” value under setting [7] is listed as 0.94. For the same compound, the Cal. Rapa (Supernate) runs as follows: under setting [2], 0.32 mg; under setting [5], 1.29 mg; under setting [7], 0.28 mg. Besides, the ratio super/sed runs as follows: under setting [3], 0.20; under setting [5], 0.18; under setting [7], 0.30. Moreover, under setting [2], the “total (% original)” value was determined as 92.8%. In addition, the “total (% of original)” value reads like this: under setting [5], 78.8%; under setting [7], 65.6%.

Regarding “Poly-L-Arginine (average or nominal MW of about 5,000 to about 15,000 Da) [Poly Arginine 5,000-15,000]”, the Sediment wt was 3.72 mg under setting [1], 6.5 mg under setting [4] and 5.11 mg under setting [6]. Moreover, the “Cal. Rapa (Sediment)” value runs as follows: under setting [2], 1.24; under setting [5], 5.36; under setting [7], 1.1. The Cal. Rapa (Supernate) under setting [2] is 0.3 mg, the Cal. Rapa (Supernate) under setting [5] was 1.15 mg and the Cal. Rapa (Supernate) under setting [7] is 0.51 mg. Moreover, the ratio super/sed was 0.24 under setting [3], 0.21 under setting [5] and 0.46 under setting [7]. For the same compound, under setting [2], the “total (% original)” value is listed as 72.6%. The “total (% of original)” value under setting [5] is recorded as 66.2% and the “total (% of original)” value under setting [7] was determined as 84.3%.

Regarding “Poly-L-Arginine (average or nominal MW of about 70,000 Da) [Poly Arginine 70,000]”, the Sediment wt is, setting by setting: under setting [1], 11.7 mg; under setting [4], 7.9 mg; under setting [6], 2.81 mg. Moreover, the “Cal. Rapa (Sediment)” value by setting is: under setting [2], 1.49; under setting [5], 6.95; under setting [7], 1.18. For the same compound, the Cal. Rapa (Supernate) is 0.73 mg under setting [2], 1.01 mg under setting [5] and 0.21 mg under setting [7]. Also, the ratio super/sed came to 0.49 under setting [3], 0.15 under setting [5] and 0.18 under setting [7]. In addition, the “total (% original)” value under setting [2] came to 100.9%. Besides, the “total (% of original)” value under setting [5] is recorded as 77.9% and the “total (% of original)” value under setting [7] is reported as 72.0%.
